{"source": "paper PMC5371824", "about": "“Phosphatidylinositol (4,5)-bisphosphate dynamically regulates the K2P background K^+ channel TASK-2” (Scientific Reports, 2017)", "key": {"[1]": {"system": "TASK-2 expressed with angiotensin II AT1 receptors", "assay": "Whole-cell current in HEK-293 cells co-transfected with AT1 and TASK-2", "assay_type": "cell-based, Mus musculus", "details": "1 μM, pulses to 0 mV from -75 mV", "procedure": "Transiently transfected HEK-293 cells in 35 mm Petri dishes were transferred to the stage of an inverted microscope for study. There they were continuously superfused with a bathing solution containing (in mM): 67.5 Na2SO4, 4 KCl, 1 K gluconate, 2 CaCl2, 1 MgCl2, 105 sucrose, and 10 Hepes/Tris (pH 7.5) (standard solution). […] All our whole-cell experiments keep both intra- and extracellular chloride at 10 mM and although currents were measured at several potentials, data mostly reported are those obtained at 0 mV. […]"}, "TASK-2-K257A-K258A": {"system": "TASK-2-K257A-K258A", "assay": "Whole-cell current in HEK-293 cells co-transfected with AT1 and TASK-2-K257A-K258A", "assay_type": "cell-based, Mus musculus", "details": "1 μM, pulses to 0 mV from -75 mV, Gβγ-insensitive mutant", "description": "(§1) Figure 3 Gq protein coupled receptor inhibition of TASK-2 and minor effect of diacylglycerol. (A) Effect of activation of the angiotensin II receptor AT1 on TASK-2-mediated currents. HEK-293 cells were co-transfected with AT1 and TASK-2, or the TASK-2-K257A-K258A mutant. Current was monitored by brief pulses to 0 mV from a holding potential of −75 mV. Angiotensin II at a concentration of 1 μM was added during the indicated time. Results are means ± SEM of 6 experiments for TASK-2 and 4 experiments for TASK-2-K257A-K258A. (B) Effect of a diacylglycerol analogue assayed on TASK-2- and TASK-3-expressing cells. Current was monitored by brief pulses to 0 mV from a holding potential of −75 mV. The box labelled DAG indicates the addition of diacylglycerol short-chain analogue 1,2-dioctanoyl-sn-glycerol at 100 nM. Results are means ± SEM of 5 experiments for TASK-2 and 8 experiments for TASK-3.\nMus musculus TASK-2 (GenBank accession No. AF319542) plasmid was that obtained from mouse kidney. The cDNAs was subcloned into the pCR3.1 vector. […]\n(§2) Transiently transfected HEK-293 cells in 35 mm Petri dishes were transferred to the stage of an inverted microscope for study. […] All our whole-cell experiments keep both intra- and extracellular chloride at 10 mM and although currents were measured at several potentials, data mostly reported are those obtained at 0 mV. […]"}, "TASK-2 [2]": {"target": "T1, TASK-2 (Mus musculus, UniProt F6V9U5)", "T1 construct": "expressed in transfected cells; host or cells: HEK-293", "T1 sequence (F6V9U5 1-502)": "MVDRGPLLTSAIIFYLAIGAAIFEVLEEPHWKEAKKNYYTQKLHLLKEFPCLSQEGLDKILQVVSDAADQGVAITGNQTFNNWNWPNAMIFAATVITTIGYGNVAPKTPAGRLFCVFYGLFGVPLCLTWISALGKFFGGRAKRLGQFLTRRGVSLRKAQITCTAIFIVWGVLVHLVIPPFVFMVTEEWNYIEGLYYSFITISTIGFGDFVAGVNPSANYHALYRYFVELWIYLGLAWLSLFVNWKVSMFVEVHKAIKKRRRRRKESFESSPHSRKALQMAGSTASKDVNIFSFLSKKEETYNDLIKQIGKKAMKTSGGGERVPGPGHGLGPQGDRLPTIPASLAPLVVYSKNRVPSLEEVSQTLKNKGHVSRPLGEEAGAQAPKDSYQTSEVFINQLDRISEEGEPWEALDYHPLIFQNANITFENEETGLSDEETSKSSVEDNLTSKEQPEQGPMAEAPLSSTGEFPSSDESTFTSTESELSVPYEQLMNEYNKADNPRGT", "assay": "Excised inside-out patch recording from HEK-293 cells over-expressing TASK-2", "assay_type": "biochemical"}, "TASK-2 [3]": {"target": "T1, TASK-2", "assay": "Whole-cell patch-clamp of HEK-293 cells expressing TASK-2", "assay_type": "cell-based", "details": "for Inhibition of TASK-2 activity by intracellular neomycin: whole-cell, 1 mM intracellular ATP, 0 mV", "description": "(§3) Mus musculus TASK-2 (GenBank accession No. AF319542) plasmid was that obtained from mouse kidney. The cDNAs was subcloned into the pCR3.1 vector. Mutations were made by site-directed mutagenesis into the pCR3.1 vector as previously described[69] and confirmed by sequencing. HEK-293 cells were cultured in Dulbecco’s modified Eagle’s medium (DMEM) and F12 Ham’s medium at a 1:1 ratio and supplemented with 10% fetal calf serum at 37 °C in 5% CO2. For electrophysiological experiments, transient transfections were performed by electroporation, using CD8 cotransfection to identify effectively transfected cells. […] Experiments were performed 4–8 h after electroporation. In experiments with the voltage-sensitive phosphatase TASK-2 or its mutants were co-electroporated with a pCR3.1-DrVSP-IRES-CD8 vector.\nTransiently transfected HEK-293 cells in 35 mm Petri dishes were transferred to the stage of an inverted microscope for study. There they were continuously superfused with a bathing solution containing (in mM): 67.5 Na2SO4, 4 KCl, 1 K gluconate, 2 CaCl2, 1 MgCl2, 105 sucrose, and 10 Hepes/Tris (pH 7.5) (standard solution). A high K^+ solution was obtained by equimolar replacement of Na^+ by K^+. The pipette solution contained (mM) 8 KCl, 132 potassium gluconate, 1 MgCl2, 10 EGTA, 1 Na3ATP, 0.1 GTP, 10 HEPES/Tris, pH 7.4. Standard whole-cell, patch-clamp recordings were performed as described elsewhere. All our whole-cell experiments keep both intra- and extracellular chloride at 10 mM and although currents were measured at several potentials, data mostly reported are those obtained at 0 mV. Potentials were corrected for liquid junction shifts. Acquisition and analysis was done with Clampfit 9.0 (Axon Instruments, Foster City, CA, USA). Further data analysis was done using the curve fitting features of SigmaPlot v. 12 (Systat Software Inc., San Jose, CA, USA)."}, "TASK-3": {"system": "TASK-3", "assay": "Whole-cell current in TASK-3-expressing cells", "assay_type": "cell-based", "details": "100 nM 1,2-dioctanoyl-sn-glycerol, pulses to 0 mV from -75 mV", "description": "as §1, §2"}, "TASK-2-R438C": {"system": "TASK-2-R438C", "assay": "Excised inside-out patch recording, TASK-2-R438C mutant", "assay_type": "biochemical, Mus musculus", "parameters": "key to Neomycin inhibition: ✓ under Neomycin inhibition indicates a significantly lower IC50 for inhibition by neomycin compared to control; — in all cases stands for no significant effect", "description": "as §3\nRecordings in the inside-out isolated patch configuration were performed in the gap-free mode at −60 mV. The inside aspect of the patch was bathed with a solution containing in mM: 10 KCl, 10 Glucose, 1 MgCl2, 10 EGTA, 1 Na3ATP, 0.1 GTP, 6.8 g/100 ml Sucrose, 10 Hepes/Tris, pH 7.4. The pipette contained in mM: 140 KCl, 10 Glucose, 6.8 g/100 ml Sucrose, 10 Hepes/Tris pH 7.4. For isolated patches, borosilicate capillaries (Harvard Apparatus GC150F-10 1.5 ODx0.86 ID) were fire polished to 4–5 MΩ and covered in beeswax. Acquisition was at 10 kHz with filter at 3 kHz (4-pole Bessel) and analysis was done with Clampfit 9.0 (Axon Instruments, Foster City, CA, USA). Traces shown are prints from crude Clampfit screen shots and quantification was done using the average currents were calculated at intervals using Clampfit after baseline adjustment.\nFig. S7. Concentration ependence for the inhibition of TASK-2 mutant R438C by\nintracellular neomycin. Recording were obtained from excised inside-out patches of\nmembrane taken from a HEK-293 cells over-expressing TASK-2-R438C. The patches were\nheld at -60 mV in the presence of 1 mM intracellular ATP. Neomycin was increased\nstepwise from 5 to 500 µM in the solution bathing the intracellular aspect of the membrane. […]"}, "Kir4.1/Kir5.1": {"system": "Kir4.1/Kir5.1", "parameters": "method as in PMID 18690035", "details": "read-out: neomycin IC50; cited from earlier work"}}, "note": "“Also recorded” adds a separate entry of the source. Like-named read-outs stand apart in the source and are kept apart here."}
{"molecule": "angiotensin II (DRVYIHPF; Angiotensin-2; UniProt P01019 25-32, looked up) [agonist of the Gq-coupled angiotensin II AT1 receptor]", "values": [{"measurement": "Effect on TASK-2-mediated current via AT1 receptor", "setting": "[1]", "result": "markedly inhibited"}, {"measurement": "Effect on TASK-2-K257A-K258A current via AT1, compared with TASK-2", "setting": "TASK-2-K257A-K258A", "result": "not significantly different"}]}
{"molecule": "CCCCC[N+](CCCCC)(CCCCC)CCCCC", "note": "[TPeA, tetrapentyl ammonium]", "values": [{"measurement": "IC50", "setting": "TASK-2 [2]", "result": "~2", "unit": "µM"}]}
{"molecule": "CCCCCCCC(=O)OC[C@H](CO)OC(=O)CCCCCCC", "note": "[DAG, 1,2-dioctanoyl-sn-glycerol]", "values": [{"measurement": "Effect on TASK-2 current", "setting": "TASK-2 [3]; 100 nM 1,2-dioctanoyl-sn-glycerol, pulses to 0 mV from -75 mV", "result": "only a minor effect"}, {"measurement": "Effect on TASK-3 current", "setting": "TASK-3", "result": "strong inhibition"}]}
{"molecule": "CCCCCCCC(=O)OC[C@H](COP(=O)(O)O[C@H]1[C@H](O)[C@@H](O)[C@H](OP(=O)(O)O)[C@@H](O)[C@H]1O)OC(=O)CCCCCCC", "note": "[PI(4)P, phosphatidylinositol 4-monophosphate diC8]", "values": [{"measurement": "Effect of readmitted ATP relative to the maximal effect elicited by the PIP", "setting": "TASK-2 [2]; 1 mM ATP added after PIP, inside-out patches, Fig. S3", "result": 5.6, "unit": "fold"}, {"measurement": "Stimulating effect on TASK-2-mediated currents after run-down", "setting": "TASK-2 [2]; diC8 PIP added to inside-out excised patches, absence of ATP", "result": "quite small; also recorded: rather weak"}, {"measurement": "Maximal fold effect on TASK-2 current (normalised to current in absence of PIP)", "setting": "TASK-2 [2]; diC8 PIP, inside-out patch, -60 mV, absence of ATP, from fits, means ± SEM", "result": "1.4 ± 0.4", "unit": "fold"}, {"measurement": "EC50", "setting": "TASK-2 [2]; diC8 PIP, inside-out patch, -60 mV, absence of ATP, from fits, means ± SEM, read-out: K0.5 (EC50) for activation of TASK-2 current", "result": "50.6 ± 1.3", "unit": "µM"}, {"measurement": "Hill coefficient nH of dose response curve", "setting": "TASK-2 [2]; diC8 PIP, inside-out patch, absence of ATP", "result": 2}]}
{"molecule": "neomycin", "values": [{"measurement": "Inhibition of TASK-2 activity by intracellular neomycin", "setting": "TASK-2 [3]; 100 μM in pipette", "result": "intermediate effect"}, {"measurement": "Inhibition of TASK-2 activity by intracellular neomycin", "setting": "TASK-2 [3]; 200 μM in pipette", "result": "near maximum effect"}, {"measurement": "IC50", "setting": "TASK-2-R438C; inside-out patch, -60 mV, 1 mM intracellular ATP, neomycin 5 to 500 µM, mean ± SEM, n=4, read-out: IC50 for neomycin inhibition of TASK-2-R438C current", "result": "8.9 ± 1.5", "unit": "µM"}, {"measurement": "Neomycin inhibition", "setting": "TASK-2-R438C; mutation R438C, IC50 compared to WT TASK-2", "result": "✓"}, {"measurement": "IC50", "setting": "Kir4.1/Kir5.1", "result": 110, "unit": "µM"}, {"measurement": "Inhibition of TASK-2 activity in excised inside-out patches", "setting": "TASK-2 [2]; 300 μM, -60 mV, 1 mM intracellular ATP", "result": "strongly inhibited"}, {"measurement": "IC50", "setting": "TASK-2 [2]; WT TASK-2, inside-out patch, -60 mV, 1 mM intracellular ATP, neomycin 5 to 500 μM intracellular, mean ± SEM, n = 4, read-out: IC50 for neomycin inhibition of TASK-2 current", "result": "~20", "unit": "µM"}, {"measurement": "IC50", "setting": "TASK-2 [2]; WT TASK-2, inside-out patch, graded intracellular neomycin, mean ± SEM, four experiments, unit inferred, read-out: IC50 for neomycin inhibition of TASK-2 current", "result": "23.4 ± 2.7", "unit": "µM"}, {"measurement": "Inhibition of TASK-2 activity by polycation PI scavengers", "setting": "TASK-2 [2]; in the presence of intracellular ATP", "result": "inhibit TASK-2 activity"}]}
